Tested on: CHO-K1 cells
Experiment: Cell viability (Cell Glo Assay) on parallel plates of the EphA4 cell assay
Type: cell-based, Chinese Hamster
Details: at 100 μM
Procedure: Transfection and Luciferase Assay: CHO-K1 cells were plated in T-175 cell culture bottle in DMEM medium supplemented with 10% fetal bovine serum, 1 mM sodium pyruvate, 2 mM L-glutamine and 1.5 g/L sodium bicarbonate. When cell reached 70-80% confluence, transfections were performed in T-175 culture flasks, using Lipofectamine 2000™ transfection reagent (Invitrogen) according to the manufacturer's directions. For the luciferase assay CHO-K1 cells were co-transfected the next day with 50 μg of pGAS-Luc, 70 μg of EphA4, and 5 μg of empty vector pRL-CMV, which encoded the Renilla luciferase, and was included in the transfection mix for normalization. […] Cells were lysed the next day using the Reporter Lysis Buffer (Promega), and the luciferase activity was measured using the Dual Luciferase Assay (Promega) following the manufacturer's directions. The Firefly and Renilla luminescences are read consecutively on a Top-Count (Perkin-Elmer). Results are expressed as a ratio of the two luminescence: Firefly Luciferase/Renilla Luciferase. Cell viability was assessed on parallel plates using the Cell Glo Assay (Promega) following the manufacturer's directions. Results are expressed as percent of cell death in comparison with vehicle-treated wells.

## Cc1ccccc1-c1nc2[nH]nc(N)c2c2c1CCC(C)(C)C2 [Example 67]
  Max Toxicity Cell Assay % of cell death: 76% at 100 μM

## CC1CCc2c(-c3ccccc3Cl)nc3[nH]nc(N)c3c2C1 (centres unmarked) [Example 63]
  Max Toxicity Cell Assay % of cell death: 68% at 100 μM

From patent US20100113415A1, “EPHA4 RTK INHIBITORS FOR TREATMENT OF NEUROLOGICAL AND NEURODEGENERATIVE DISORDERS AND CANCER” (priority 2008, published 2010)
